Experimental data reported in paper PMC4608580, “Synthesis and Evaluation of Biological Activity of Antimicrobial – Pro-Proliferative Peptide Conjugates” (PLoS ONE, 2015).

Legend:
Assay type in all cases: cell-based
[1] = tested on: immortalized human HaCaT keratinocytes; experiment: Cell proliferation assay (MTT); settings: 72 h; for Effect on HaCaT cell viability (MTT), in words / Effect on HaCaT cell viability/proliferation (MTT), in words: serum-free DMEM; for Effect on HaCaT cell viability (MTT), in words: peptide at 50 μg/mL; for Effect on HaCaT cell viability/proliferation (MTT), in words: whole range 1–50 μg/mL, vs. control without peptide, triplicate; for Concentration above which the conjugate is cytotoxic: MTT, cell type not named in the sentence (keratinocytes and fibroblasts tested)
Method: (§1) In our study two kind of cells were used: immortalized human HaCaT keratinocytes (DKFZ Heidelberg, Germany) and primary dermal fibroblasts obtained from 3 healthy donors. Both types of the used cell lines were grown in Dulbecco's modified Eagle's medium (DMEM) (Sigma–Aldrich, Germany), that contained […] of glucose, […] of L-glutamine, sodium pyruvate and sodium bicarbonate. Additionally, medium was supplemented with 10% of FCS (fetal calf serum, Sigma-Aldrich, Germany), 100 U/mL of penicillin and 100 μg/mL streptomycin (Sigma-Aldrich, Germany). The cells were grown in culture dishes (BD, USA) under standard conditions in a humidified atmosphere with 5% CO2 at 37°C and medium was changed every 2 days.
(§2) The fibroblasts and keratinocytes were seeded at density of 4500 and 6000 cells per well, respectively, into 96-well plates suspended in a medium supplemented with 10% of FCS. After 24 h the media were exchanged with serum- and antibiotic- free DMEM and tested peptides dissolved in PBS were added yielding final concentration ranging from 1 to 50 μg/mL. Cells were incubated for the next 24 hours, when the medium was exchanged again and fresh portion of peptides (used at the same concentrations as previously) was added. Incubation was continued for the next 48 hours (the overall time of cell exposition to peptide was 72 h). At the end of the experiment cells were treated with 20 μL of MTT (5 mg/mL in PBS). After 3 h at 37°C under 5% CO2 medium was discarded and replaced by 6mM HCl in isopropanol. After 15 min when the purple crystals of formazan were fully solubilized, absorbance was read at 570 nm with a plate reader. The optical density reflects the level of cell viability as MTT is converted in purple formazan product only in the presence of viable mitochondria of the living cells.
Fig 1 Pro-proliferative activity of the tested peptides towards human keratinocytes (A) and fibroblasts (B). Cells were incubated for 72 hours in serum-free DMEM medium in the presence of peptides applied at concentrations of 1,10, 25 and 50 μg/mL, respectively. The data represents results of MTT assay expressed as the percentage of the cell viability in comparison to their control sample (cells incubated in serum-free DMEM without tested peptides), additional positive control corresponds to the cells incubated in the presence of 10% FCS. All experiments were performed independently in triplicate. *P < 0.05, **P < 0.01, ***P < 0.001 vs. control.
In order to evaluate a long-term effect of peptides, experiments were carried out for 72 hours. Before addition of the tested compounds, the cell medium was exchanged for the fresh one not containing any serum or antibiotic.

[2] = tested on: human primary dermal fibroblasts; experiment: Cell migration assay (in vitro scratch test); settings: 25 μg/mL, 24 h
Method: (§3) Biopsies of healthy human skin were obtained aseptically from three donors (47–69 years old) undergoing circumcision after obtaining their written informed consent. All the procedures were approved by the Ethics Committee of Medical University of Gdansk (NKEBN/483/2011. Issued: 2011-12-19). The samples were washed several times with sterile PBS (Sigma-Aldrich, Germany) containing antibiotic (200 U/mL penicillin and 200 μg/mL streptomycin), after which, the subcutaneous tissue was cut off with a sharp blade. The resulting sheets were cut into small fragments, washed two times with sterile PBS and treated with 6 U/mL dispase II (BD, USA) overnight at 4°C to separate epidermis and dermis. The dermis was then digested with 1.0 mg/mL collagenase type I (from Clostridium histolyticum Sigma-Aldrich, Germany) for 2 hours at 37°C to isolate fibroblasts. Cells were used between the 2nd and 4th passage in all experiments.
Fibroblasts and keratinocytes were seeded (5x10^5 cells/well) in 6-well plates. When desired monolayer confluence was reached, cells were starved for 24 hours in serum-free DMEM. The monolayer was scratched then with 200μL-pipette tip. […] The wounded areas were then photographed by means of Zeiss Observer D1 microscope equipped with camera AxioCam and analyzed with AxioVision software (Carl Zeiss, Germany). Migration activity of the cells treated with the tested peptides were expressed as the percentage of the wounded area with respect to the control probe (cell cultures without any of the peptide), assumed as 100%.
An in vitro scratch test was performed to investigate the effect of the analyzed compounds on keratinocytes and fibroblasts migration. […]
Fig 2 Effect of the peptides on HaCaT keratinocytes and fibroblasts cell migration in the in vitro scratch test. […] Migration was analyzed after 24 hours by means of Zeiss Observer D1 microscope, wounding areas were analyzed with AxioVision software and expressed as the percentage of the wound width in comparison to the control sample (cells incubated in DMEM without FCS). […]

[3] = tested on: human primary dermal fibroblasts; experiment: Cell proliferation assay (MTT); settings: 72 h, serum-free DMEM, peptide at 25 and 50 μg/mL
Method: as §3, §1
as §2, with “At the end of the experiment cells were treated with 20 μL of MTT (5 mg/mL in PBS). After 3 h at 37°C under 5% CO2 medium was discarded and replaced by 6mM HCl in isopropanol.” left out, “The optical density reflects the level of cell viability as MTT is converted in purple formazan product only in the presence of viable mitochondria of the living cells.” left out
Fig 1 Pro-proliferative activity of the tested peptides towards human keratinocytes (A) and fibroblasts (B). […] The data represents results of MTT assay expressed as the percentage of the cell viability in comparison to their control sample (cells incubated in serum-free DMEM without tested peptides), additional positive control corresponds to the cells incubated in the presence of 10% FCS. […]

YAGFLR-PEG-IKKILSKIKKLL-NH2 [DAL-PEG-DK5, conjugate of dalargin and DK5 joined by PEG-linker]
Effect on HaCaT cell viability (MTT), in words [1]: lowest cell viability
Effect on HaCaT cell viability/proliferation (MTT), in words [1]: negative dose-response relationship
Concentration above which the conjugate is cytotoxic [1]: higher than 25 μg/mL
Effect on fibroblast migration (scratch test), in words ([2]; serum-free DMEM, Mitomycin C 5 μg/mL, vs. control without peptide, three independent experiments): neutral or slightly stimulative
Effect on fibroblast viability (MTT), in words [3]: lowest cell viability

IKKILSKIKKLL-NH2 [DK5, Lys-rich derivative of amphibian AMP temporin-1CEb, …-NH2, reference compound]
Effect on HaCaT cell viability/proliferation (MTT), in words [1]: negative dose-response relationship
Inhibitory effect on fibroblast migration in comparison to the control ([2]; scratch test): ~50%

YAGFLR-PEG-IKKILSKIKKLLK-NH2 [DAL-PEG-LK6, conjugate of dalargin and LK6 joined by PEG-linker]
Effect on HaCaT cell viability (MTT), in words [1]: cytotoxic effect
Concentration above which the conjugate is cytotoxic [1]: higher than 25 μg/mL
Effect on fibroblast viability (MTT), in words [3]: lowest cell viability
